# Laboratory results as given in US20040082623A1, “Fmoc-l-leucine and derivatives thereof as ppar-gamma agonists” (priority 2003, published 2004).
# Columns and labels:
# PPARγ = target: T1, PPARγ (Homo sapiens, UniProt P37231); assay: Protease protection (partial trypsin digestion of 35S-PPARγ); assay type: binding; details: compound 10^−4M, increasing trypsin
# T1 construct: a construct containing the entire cDNA of the human PPARγ2 (hPPARγ2); host or cells: cell-free coupled transcription/translation system
# T1 sequence (P37231 1-505): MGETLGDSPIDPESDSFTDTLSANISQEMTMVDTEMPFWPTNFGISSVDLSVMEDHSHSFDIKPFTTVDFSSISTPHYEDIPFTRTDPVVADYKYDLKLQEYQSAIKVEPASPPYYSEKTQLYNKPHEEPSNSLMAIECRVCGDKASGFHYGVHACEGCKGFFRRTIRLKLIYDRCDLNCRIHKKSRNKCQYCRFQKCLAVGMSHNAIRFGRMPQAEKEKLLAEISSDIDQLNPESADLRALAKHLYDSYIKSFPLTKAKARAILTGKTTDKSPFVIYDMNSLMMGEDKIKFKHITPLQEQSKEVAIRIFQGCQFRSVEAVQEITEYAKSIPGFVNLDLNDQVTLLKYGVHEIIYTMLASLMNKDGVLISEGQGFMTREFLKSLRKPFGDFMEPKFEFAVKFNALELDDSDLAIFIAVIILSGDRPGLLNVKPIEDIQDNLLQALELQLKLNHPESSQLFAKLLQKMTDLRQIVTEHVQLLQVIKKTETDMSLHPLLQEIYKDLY
# Procedure: The pSG5-hPPARγ2 plasmid was used to synthesize ? ^35S-radiolabeled PPARγ in a coupled transcription/translation system according to the protocol of the manufacturer (Promega, Madison, Wis.). The transcription/translation reactions were subsequently aliquoted into 22.5 μl and 2,5 μl of phosphate buffered saline +/− compound were added. The mixture was separated into 4.5 μl aliquots and 0.5 μl of distilled water or distilled water-solubilized trypsin were added. The protease digestion were allowed to proceed for 10 min at 25° C. and terminated by the addition denaturing loading buffer. After separation of the digestion products in a gel SDS ? PAGE 12% acrylamide, the gel was fixed in 10% acetic acid (v/v) 30% ethanol (v/v) ? for 30 min, treated in Amplify™ (Amersham, Orsay, France) and dried. The radiolabeled digestion products were visualized by autoradiography.
# 3T3-L1 cells = assay: Adipocyte differentiation of 3T3-L1 cells (Northern blot, Oil Red O); assay type: cell-based, murine
# Procedure: Confluent 3T3-L1 cells were incubated with 2 μM insulin, 1 μM dexamethasone, and 0.25 mM isobuthyl methyl xanthine for two days. […] A: RNA was isolated from 3T3-L1 cells after different times of differentiation induction. Blots were hybridized with 36B4 (to control for RNA loading); LPL or aP2 cDNAs. B: Cells were stained with Oil Red O after 6 days. LPL: lipoprotein lipase.
# 3T3-L1 cells (ATCC, Rockville, Md.) were grown to confluence in medium ? (Dulbecco's modified Eagle's Medium with 10% fetal calf serum, 100 units/n ? penicillin, and 100 μg/ml streptomycin). Confluent cells were incubated in medium ? containing 2 μM insulin, 1 μM dexamethasone, and 0.25 mM isobuthyl meth ? xanthine for two days. Then, the cells were incubated in medium A in presence ? absence of PPARγ y agonist for 4 days, changing the medium every 2 day ? Adipogenesis was evaluated by analysis of the expression of adipocyte-specif ? markers and by staining of lipids with Oil Red O (Chawla and Lazar, 1994).
# Adipogenesis was monitored by analysis of lipoprotein lipase (LPL) and aP2 mRNA levels as markers of adipocyte differentiation and by studying morphological changes associated with the differentiation process.
# C57BL/6j mice = assay: Intraperitoneal glucose tolerance test in C57BL/6j mice; assay type: in vivo; details: for maximum glucose levels in IPGTT: 7 days, control 440
# Procedure: Mice were treated with 2 different doses of F-L-Leu (10 and 30 mg/kg/days) during 7 days and then IPGTT was performed.
# PPARγ2 [1] = target: T2, PPARγ2 (Homo sapiens, UniProt P37231); assay: Transient transfection, PPARγ2 reporter (luciferase/β-galactosidase) in Hep G2 cells; assay type: cell-based; parameters: a construct containing the entire cDNA of the human PPARγ2 (hPPARγ2); expressed in transfected cells; host or cells: Hep G2
# T2 sequence (P37231 1-505): T1 sequence (P37231 1-505)
# Procedure: Hep G2 cells were co-transfected with an expression vector for PPARγ2 (0.1 μg/well), pGL3-(Jwt)3TKLuc reporter construct (0.5 μg/well), and pCMV-βGal (0.5 μg/well), as a control of transfection efficiency (0.5 μg/well). The were then grown during 24 h in the presence or absence of indicated compound Activation is expressed as relative luciferase activity/β-galactosidase activity. Each point was performed in triplicate. This figure is representative of three independent experiments.
# (§1) RK13 cells (A and D), CV1 cells (B) or Hep G2 cells (C) were co-transfected with an expression vector for PPARγ2 (0.1 μg/well), pGL3-(Jwt)3TKLuc reported construct (0.5 μg/well), and pCMV-βGal (0.5 μg/well), as a control of transfection efficiency (0.5 μg/well). They were then grown during 24 h in the presence or absence of indicated compound. Activation is expressed as relative luciferase activity/β ? galactosidase activity. Each point was performed in triplicate, and each figure i ? representative of four independent experiments.
# (§2) The CV1, RK-13, and Hep G2 cell lines were obtained from ATCC (Rockville, Md.). Cells were maintained in Dulbecco's modified Eagle's minimal essential medium (DMEM) supplemented with 10% fetal calf serum (FCS), L-glutamine, and antibiotics. Transfections with chloramphenicol acetyltransferase (CAT) or luciferase (luc.) reporter constructs were carried out exactly as described previously (Schoonjans et al., 1996). The pGL3-(Jwt)3TKLuc and the pGL3-(Jwt)3TKCAT reporter constructs contain both three tandem repeats of the J site of the apolipoprotein A-II promoter cloned upstream of the herpes simplex virus thymidine kinase (TK) promoter and the luciferase or the CAT reporter genes respectively (Vu-Dac et al., 1995). The following expression vectors were used; pSG5-hPPARγ2, a construct containing the entire cDNA of the human PPARγ2 (hPPARγ2) (Fajas et al., 1997); pSG5-mPPARα (Isseman et al., 1993); and pCMV-βGal, as a control of transfection efficiency.
# PPARγ2 [2] = target: T2, PPARγ2; assay: Transient transfection, PPARγ2 reporter in CV1 cells; assay type: cell-based; parameters: a construct containing the entire cDNA of the human PPARγ2 (hPPARγ2); expressed in transfected cells; host or cells: Hep G2, RK13 or CV1 cells; details: simian renal cells CV1
# Procedure: as §1
# as §2, with “The following expression vectors were used; pSG5-hPPARγ2, a construct containing the entire cDNA of the human PPARγ2 (hPPARγ2) (Fajas et al., 1997); pSG5-mPPARα (Isseman et al., 1993); and pCMV-βGal, as a control of transfection efficiency.” left out
# [3] = 3T3-L1, 10^−5 M, extent close to rosiglitazone 10^−7 M
# Procedure for db/db mice: Intraperitoneal glucose tolerance test (IPGTT) in C57BL/6j (A) or db/db (B) mice 10 to 12 weeks old (n=8).
# All mice were maintained in a temperature-controlled (25° C.) facility with a strict 12 h ? light/dark cycle and were given free access to food (standard mice chow; DO4, UAR ? France) and water.
# C57B1/6J and db/db mice (8 per group) were obtained through the Janvier laboratorie ? (Laval-Le Genest, France).
structure (smiles),measurement,setting,value
"CC(C)CC(NC(=O)OCC1c2ccccc2-c2ccccc21)C(=O)O [F-L-Leu, N-(9-fluroroenylmethyloxycarbonyl)-L-Leucine]",protection of PPARγ from trypsin digestion (conformation change),PPARγ,produced a protease protection
same,LPL mRNA levels,3T3-L1 cells; [3],significantly stimulated
same,aP2 mRNA levels,3T3-L1 cells; [3],significantly stimulated
same,neutral lipid accumulation (Oil Red O staining),"3T3-L1 cells; 3T3-L1, 6 days, F-L-Leu 10^−5 M, rosiglitazone 10^−7 M",capable of inducing neutral lipid accumulation
same,insulin sensitivity in normal animals,C57BL/6j mice; 30 mg/kg/day,significantly improve insulin sensitivity
same,clearance of intraperitoneally administered glucose vs vehicle,"C57BL/6j mice; C57BL/6j, 10 mg/kg/day",comparable rate
same,maximum glucose levels in IPGTT,"C57BL/6j mice; C57BL/6j, 10 mg/kg/day i.p.",440 mg/dL
same,maximum glucose levels in IPGTT,"C57BL/6j mice; C57BL/6j, 30 mg/kg/day i.p.",320 mg/dL
same,area under the curve in IPGTT,"C57BL/6j mice; C57BL/6j, 30 mg/kg/day, vs control or lower dose",significantly lower
same,liver weight relative to control or rosiglitazone-treated mice,db/db mice; data not shown,tendency to diminution of the liver weight
same,insulin sensitivity compared with an equivalent dose of rosiglitazone,"db/db mice; db/db mice, 1 mg/kg/day as printed",improved insulin sensitivity more dramatically
same,maximal glycemia in IPGTT,"db/db mice; db/db, 10 mg/kg/day i.p., 7 days, DMSO control 500",420 mg/dL
same,time of maximal glucose level after glucose injection,"db/db mice; db/db, 10 mg/kg/day, 7 days",20 min
same,time to decrease to normal (100 mg/dl) glucose values,"db/db mice; db/db, 10 mg/kg/day, 7 days",≤ 120 min
same,fasting serum insulin levels (mean),"db/db mice; db/db, 7 days treatment, DMSO group 180",70 μUI/mL
same,optimal concentration for PPARγ activation compared with PG J2,PPARγ2 [1]; HepG2,similar
same,optimal concentration relative to concentration of rosiglitazone or pioglitazone necessary to reach the same efficacy,"PPARγ2 [1]; HepG2, fold higher, pioglitazone data not shown",100 fold
same,PPARγ activation (relative luciferase activity/β-galactosidase activity),"PPARγ2 [1]; HepG2 cells, pSG5-hPPARγ2, 24 h, F-L-leu at 10^−5 M",Significant PPARγ activity
same,concentration required for optimal PPARγ activation,PPARγ2 [1]; human HepG2 cells,10^−5 M
same,potency in transfection experiments relative to rosiglitazone,"PPARγ2 [1]; summary statement, cell line not named",two orders of magnitude less potent
same,concentration required for optimal PPARγ activation,PPARγ2 [2],10^−5 M
